Experimental data: patent US20200079758A1, “[4-(PHENYLSULFONYL)PIPERAZIN-1-YL](1H-1,2,3-TRIAZOL-4-YL)METHANONES” (priority 2016, published 2020)

The molecules below were run against T1, recombinant human AKR1C3 (Homo sapiens, UniProt P42330) (assay: AKR1C3-inhibitory activity assay (generation of Coumberol from Coumberone)). Conditions: Coumberone 0.3 μM, NADPH 10 μM, 22° C., typically 90 min, average or median values.
T1 construct: GST (cleaved yes); made in house; host or cells: E. coli
T1 sequence (P42330 1-323): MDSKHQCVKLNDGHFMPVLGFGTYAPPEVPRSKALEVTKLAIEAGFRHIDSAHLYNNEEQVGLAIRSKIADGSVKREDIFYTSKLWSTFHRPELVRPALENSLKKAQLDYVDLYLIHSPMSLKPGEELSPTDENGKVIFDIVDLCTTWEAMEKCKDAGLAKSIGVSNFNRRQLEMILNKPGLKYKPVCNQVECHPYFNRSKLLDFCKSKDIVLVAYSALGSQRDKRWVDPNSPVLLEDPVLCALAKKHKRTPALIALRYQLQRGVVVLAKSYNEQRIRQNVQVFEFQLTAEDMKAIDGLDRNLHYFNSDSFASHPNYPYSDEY
Type: biochemical
How it was run: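 Recombinant human AKR1C3 (E. coli GST fusion, GST removed; ~1 nM) preincubated 15 min with compound, then NADPH 10 μM and Coumberone 0.3 μM (final), 22 °C, typically 90 min, in 50 mM K-phosphate pH 7. Stopped with EM-1404 (1 μM final); Coumberol fluorescence read at 520 nm (ex 380 nm), normalized to no-inhibitor and no-enzyme controls.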

**Q.** How did the IC50 turn out when `COc1cccc(S(=O)(=O)N2C[C@@H](C)N(C(=O)c3cnn[nH]3)[C@@H](C)C2)c1` [Example 108, {(2R,6S)-4-[(3-methoxyphenyl)sulfonyl]-2,6-dimethylpiperazin-1-yl}(1H-1,2,3-triazol-5-yl)methanone] was run?
**A.** The IC50 was 40 nM.

**Q.** `CC1(C)CN(C(=O)c2cnn[nH]2)CCN1S(=O)(=O)c1ccc(Br)cc1` [Example 109, {4-[(4-bromophenyl)sulfonyl]-3,3-dimethylpiperazin-1-yl}(1H-1,2,3-triazol-5-yl)methanone] was tested. Which IC50 did it give?
**A.** The IC50 was 4 nM.

**Q.** Which IC50 does the source give for `CC1(C)CN(C(=O)c2cnn[nH]2)CCN1S(=O)(=O)c1ccc(Cl)cc1` [Example 110, {4-[(4-chlorophenyl)sulfonyl]-3,3-dimethylpiperazin-1-yl}(1H-1,2,3-triazol-5-yl)methanone] here?
**A.** The IC50 was 5 nM.

**Q.** How did the IC50 turn out when `CC1(C)CN(C(=O)c2cnn[nH]2)CCN1S(=O)(=O)c1ccc([N+](=O)[O-])cc1` [Example 111, {3,3-dimethyl-4-[(4-nitrophenyl)sulfonyl]piperazin-1-yl}(1H-1,2,3-triazol-5-yl)methanone] was run?
**A.** Its IC50 is 89 nM.

**Q.** For `CC1(C)CN(C(=O)c2cnn[nH]2)CCN1S(=O)(=O)c1cccc([N+](=O)[O-])c1` [Example 112, {3,3-dimethyl-4-[(3-nitrophenyl)sulfonyl]piperazin-1-yl}(1H-1,2,3-triazol-5-yl)methanone], which IC50 is on record?
**A.** The IC50 was 24 nM.

**Q.** How did the IC50 turn out when `Cc1cc(C)c(S(=O)(=O)N2CCN(C(=O)c3cnn[nH]3)CC2(C)C)c(C)c1` [Example 113, {3,3-dimethyl-4-[(2,4,6-trimethylphenyl)sulfonyl]piperazin-1-yl}(1H-1,2,3-triazol-5-yl)methanone] was run?
**A.** The IC50 was 39 nM.

**Q.** With `CC1(C)CN(C(=O)c2cnn[nH]2)CCN1S(=O)(=O)c1ccccc1[N+](=O)[O-]` [Example 114, {3,3-dimethyl-4-[(2-nitrophenyl)sulfonyl]piperazin-1-yl}(1H-1,2,3-triazol-5-yl)methanone] as the molecule, how does the IC50 read?
**A.** Its IC50 is 10 nM.

**Q.** For `COc1ccc(OC)c(S(=O)(=O)N2CCN(C(=O)c3cnn[nH]3)CC2(C)C)c1` [Example 115, {4-[(2,5-dimethoxyphenyl)sulfonyl]-3,3-dimethylpiperazin-1-yl}(1H-1,2,3-triazol-5-yl)methanone], which IC50 is on record?
**A.** Its IC50 is 208 nM.

**Q.** For `CC1(C)CN(C(=O)c2cnn[nH]2)CCN1S(=O)(=O)c1ccc(Cl)c(Cl)c1` [Example 116, {4-[(3,4-dichlorophenyl)sulfonyl]-3,3-dimethylpiperazin-1-yl}(1H-1,2,3-triazol-5-yl)methanone], which IC50 is on record?
**A.** The IC50 was 2 nM.

**Q.** `Cc1cccc(Cl)c1S(=O)(=O)N1CCN(C(=O)c2cnn[nH]2)CC1(C)C` [Example 117, {4-[(2-chloro-6-methylphenyl)sulfonyl]-3,3-dimethylpiperazin-1-yl}(1H-1,2,3-triazol-5-yl)methanone] was tested. Which IC50 did it give?
**A.** The IC50 was 4 nM.

**Q.** `COc1ccc(S(=O)(=O)N2CCN(C(=O)c3cnn[nH]3)CC2(C)C)cc1OC` [Example 118, {4-[(3,4-dimethoxyphenyl)sulfonyl]-3,3-dimethylpiperazin-1-yl}(1H-1,2,3-triazol-5-yl)methanone] was tested. Which IC50 did it give?
**A.** Its IC50 is 77 nM.

**Q.** With `CC1(C)CN(C(=O)c2cnn[nH]2)CCN1S(=O)(=O)c1cccc(Cl)c1Cl` [Example 119, {4-[(2,3-dichlorophenyl)sulfonyl]-3,3-dimethylpiperazin-1-yl}(1H-1,2,3-triazol-5-yl)methanone] as the molecule, how does the IC50 read?
**A.** The IC50 was 9 nM.

**Q.** For `CC1(C)CN(C(=O)c2cnn[nH]2)CCN1S(=O)(=O)c1ccc(C#N)cc1` [Example 120, 4-{[2,2-dimethyl-4-(1H-1,2,3-triazol-5-ylcarbonyl)piperazin-1-yl]sulfonyl}benzonitrile], which IC50 is on record?
**A.** Its IC50 is 263 nM.

**Q.** With `CC1(C)CN(C(=O)c2cnn[nH]2)CCN1S(=O)(=O)c1cccc2nsnc12` [Example 121, [4-(2,1,3-benzothiadiazol-4-ylsulfonyl)-3,3-dimethylpiperazin-1-yl](1H-1,2,3-triazol-5-yl)methanone] as the molecule, how does the IC50 read?
**A.** The IC50 was 29 nM.

**Q.** Which IC50 does the source give for `CC1(C)CN(C(=O)c2cnn[nH]2)CCN1S(=O)(=O)c1cccc2nonc12` [Example 122, [4-(2,1,3-benzoxadiazol-4-ylsulfonyl)-3,3-dimethylpiperazin-1-yl](1H-1,2,3-triazol-5-yl)methanone] here?
**A.** The IC50 was 35 nM.

**Q.** With `CC1(C)CN(C(=O)c2cnn[nH]2)CCN1S(=O)(=O)c1c(Cl)cc(Cl)cc1Cl` [Example 123, {3,3-dimethyl-4-[(2,4,6-trichlorophenyl)sulfonyl]piperazin-1-yl}(1H-1,2,3-triazol-5-yl)methanone] as the molecule, how does the IC50 read?
**A.** Its IC50 is 12 nM.

**Q.** How did the IC50 turn out when `COc1ccc(Cl)cc1S(=O)(=O)N1CCN(C(=O)c2cnn[nH]2)CC1(C)C` [Example 124, {4-[(5-chloro-2-methoxyphenyl)sulfonyl]-3,3-dimethylpiperazin-1-yl}(1H-1,2,3-triazol-5-yl)methanone] was run?
**A.** The IC50 was 96 nM.

**Q.** For `CC1(C)CN(C(=O)c2cnn[nH]2)CCN1S(=O)(=O)c1ccc2nsnc2c1` [Example 125, [4-(2,1,3-benzothiadiazol-5-ylsulfonyl)-3,3-dimethylpiperazin-1-yl](1H-1,2,3-triazol-5-yl)methanone], which IC50 is on record?
**A.** The IC50 was 25 nM.

**Q.** `CC1(C)CN(C(=O)c2cnn[nH]2)CCN1S(=O)(=O)c1ccc(F)c(F)c1F` [Example 126, {3,3-dimethyl-4-[(2,3,4-trifluorophenyl)sulfonyl]piperazin-1-yl}(1H-1,2,3-triazol-5-yl)methanone] was tested. Which IC50 did it give?
**A.** Its IC50 is 46 nM.

**Q.** With `CC1(C)CN(C(=O)c2cnn[nH]2)CCN1S(=O)(=O)c1cc(Cl)ccc1F` [Example 127, {4-[(5-chloro-2-fluorophenyl)sulfonyl]-3,3-dimethylpiperazin-1-yl}(1H-1,2,3-triazol-5-yl)methanone] as the molecule, how does the IC50 read?
**A.** Its IC50 is 4 nM.

**Q.** How did the IC50 turn out when `CC1(C)CN(C(=O)c2cnn[nH]2)CCN1S(=O)(=O)c1cc(F)c(F)cc1F` [Example 128, {3,3-dimethyl-4-[(2,4,5-trifluorophenyl)sulfonyl]piperazin-1-yl}(1H-1,2,3-triazol-5-yl)methanone] was run?
**A.** Its IC50 is 18 nM.

**Q.** `Cc1ccc(Cl)cc1S(=O)(=O)N1CCN(C(=O)c2cnn[nH]2)CC1(C)C` [Example 129, {4-[(5-chloro-2-methylphenyl)sulfonyl]-3,3-dimethylpiperazin-1-yl}(1H-1,2,3-triazol-5-yl)methanone] was tested. Which IC50 did it give?
**A.** Its IC50 is 6 nM.

**Q.** Which IC50 does the source give for `COc1ccccc1S(=O)(=O)N1CCN(C(=O)c2cnn[nH]2)CC1(C)C` [Example 130, {4-[(2-methoxyphenyl)sulfonyl]-3,3-dimethylpiperazin-1-yl}(1H-1,2,3-triazol-5-yl)methanone] here?
**A.** The IC50 was 38 nM.

**Q.** With `COC(=O)c1cccc(S(=O)(=O)N2CCN(C(=O)c3cnn[nH]3)CC2(C)C)c1` [Example 131, methyl 3-{[2,2-dimethyl-4-(1H-1,2,3-triazol-5-ylcarbonyl)piperazin-1-yl]sulfonyl}benzoate] as the molecule, how does the IC50 read?
**A.** Its IC50 is 204 nM.

**Q.** For `CC1(C)CN(C(=O)c2cnn[nH]2)CCN1S(=O)(=O)c1ccc2c(c1)OCO2` [Example 132, [4-(1,3-benzodioxol-5-ylsulfonyl)-3,3-dimethylpiperazin-1-yl](1H-1,2,3-triazol-5-yl)methanone], which IC50 is on record?
**A.** The IC50 was 22 nM.

**Q.** `COc1cc(C)ccc1S(=O)(=O)N1CCN(C(=O)c2cnn[nH]2)CC1(C)C` [Example 133, {4-[(2-methoxy-4-methylphenyl)sulfonyl]-3,3-dimethylpiperazin-1-yl}(1H-1,2,3-triazol-5-yl)methanone] was tested. Which IC50 did it give?
**A.** Its IC50 is 16 nM.

**Q.** `CC1(C)CN(C(=O)c2cnn[nH]2)CCN1S(=O)(=O)c1cccc(Cl)c1C#N` [Example 134, 2-chloro-6-{[2,2-dimethyl-4-(1H-1,2,3-triazol-5-ylcarbonyl)piperazin-1-yl]sulfonyl}benzonitrile] was tested. Which IC50 did it give?
**A.** Its IC50 is 7 nM.

**Q.** Which IC50 does the source give for `CC1(C)CN(C(=O)c2cnn[nH]2)CCN1S(=O)(=O)c1cccc2c1OCC2` [Example 135, [4-(2,3-dihydro-1-benzofuran-7-ylsulfonyl)-3,3-dimethylpiperazin-1-yl](1H-1,2,3-triazol-5-yl)methanone] here?
**A.** The IC50 was 4 nM.

**Q.** Which IC50 does the source give for `CC1(C)CN(C(=O)c2cnn[nH]2)CCN1S(=O)(=O)c1cc(F)ccc1Cl` [Example 136, {4-[(2-chloro-5-fluorophenyl)sulfonyl]-3,3-dimethylpiperazin-1-yl}(1H-1,2,3-triazol-5-yl)methanone] here?
**A.** The IC50 was 5 nM.

**Q.** For `CC1(C)CN(C(=O)c2cnn[nH]2)CCN1S(=O)(=O)c1cccc(F)c1Cl` [Example 137, {4-[(2-chloro-3-fluorophenyl)sulfonyl]-3,3-dimethylpiperazin-1-yl}(1H-1,2,3-triazol-5-yl)methanone], which IC50 is on record?
**A.** The IC50 was 19 nM.

**Q.** With `COc1cc(F)ccc1S(=O)(=O)N1CCN(C(=O)c2cnn[nH]2)CC1(C)C` [Example 138, {4-[(4-fluoro-2-methoxyphenyl)sulfonyl]-3,3-dimethylpiperazin-1-yl}(1H-1,2,3-triazol-5-yl)methanone] as the molecule, how does the IC50 read?
**A.** The IC50 was 23 nM.

**Q.** For `COc1ccc(C#N)cc1S(=O)(=O)N1CCN(C(=O)c2cnn[nH]2)CC1(C)C` [Example 139, 3-{[2,2-dimethyl-4-(1H-1,2,3-triazol-5-ylcarbonyl)piperazin-1-yl]sulfonyl}-4-methoxybenzonitrile], which IC50 is on record?
**A.** The IC50 was 285 nM.

**Q.** With `Cc1cc(Cl)cc(S(=O)(=O)N2CCN(C(=O)c3cnn[nH]3)CC2(C)C)c1` [Example 140, {4-[(3-chloro-5-methylphenyl)sulfonyl]-3,3-dimethylpiperazin-1-yl}(1H-1,2,3-triazol-5-yl)methanone] as the molecule, how does the IC50 read?
**A.** The IC50 was 2 nM.
